Source: article PMC3745430, “Novel Multiplexed Assay for Identifying SH2 Domain Antagonists of STAT Family Proteins” (PLoS ONE, 2013)
Read-outs that look alike come from different tables or passages of the source.

Legend:
[1] = target: T1, STAT5b(136–703) (Homo sapiens, UniProt P51692); assay: Multiplexed Alpha assay, STAT5b-SH2 binding (AlphaScreen)
T1 construct: 136 to 703 of human STAT5b; 6×His-tag (N); made in house; host or cells: E. coli BL-21 Star (DE3) pLysS co-transformed with pBirAcm
T1 sequence (P51692 136-703): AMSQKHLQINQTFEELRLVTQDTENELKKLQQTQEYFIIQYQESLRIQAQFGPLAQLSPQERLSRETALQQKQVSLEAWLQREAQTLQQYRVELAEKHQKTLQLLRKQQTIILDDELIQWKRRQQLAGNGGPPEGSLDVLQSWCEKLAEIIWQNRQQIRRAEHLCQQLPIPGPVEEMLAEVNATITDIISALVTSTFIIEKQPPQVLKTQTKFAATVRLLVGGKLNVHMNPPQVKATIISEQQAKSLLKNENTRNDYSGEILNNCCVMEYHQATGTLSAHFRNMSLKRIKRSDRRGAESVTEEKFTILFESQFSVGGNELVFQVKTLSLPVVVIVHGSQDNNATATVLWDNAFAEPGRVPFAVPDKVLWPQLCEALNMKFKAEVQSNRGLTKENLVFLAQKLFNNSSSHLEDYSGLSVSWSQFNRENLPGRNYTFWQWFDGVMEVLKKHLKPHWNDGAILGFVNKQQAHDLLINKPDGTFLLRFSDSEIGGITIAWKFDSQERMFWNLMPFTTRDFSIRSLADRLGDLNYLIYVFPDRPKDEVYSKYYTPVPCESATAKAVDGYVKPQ
Method: (§1) Both AlphaLISA and AlphaScreen are bead-based nonradioactive binding assay systems for detecting biomolecular interactions in a microplate format. The binding of the biological partners brings the donor and acceptor beads into close proximity, and AlphaLISA produces a specific signal around 615 nm and AlphaScreen emits a broad signal between 520 and 620 nm. The assays were performed in a final reaction volume of 25 µL of the assay buffer, which contained 10 mM HEPES-NaOH (pH 7.4), 50 mM NaCl, 1 mM EDTA (pH 8.0), 0.1% (w/v) NP-40, and 10 ng/µL (w/v) BSA in a 96-well microplate at 25°C. The labeled phosphotyrosyl (pTyr, pY) peptide probes were DIG-GpYLPQTV and FITC-GpYLVLDKW for STAT3 and STAT5b, respectively. In the single assay for STAT3 binding, 100 nM STAT3(136–705) protein was incubated with a test compound dissolved in DMSO for 30 min, and 1.0 nM DIG-GpYLPQTV was added and the mixture was incubated for 90 min. Streptavidin-coated donor beads (0.25 µg/well) and anti-DIG AlphaLISA acceptor beads (0.25 µg/well) were added and incubated for 90 min before the signals were measured with EnVison Xcite (PerkinElmer Life Sciences). In the single assay for STAT5b binding, 20 nM STAT5b(136–703) was incubated with a test compound for 30 min, and 1.0 nM FITC-GpYLVLDKW was added and incubated for 90 min. Streptavidin-coated donor beads (0.25 µg/well) and anti-FITC AlphaScreen acceptor beads (0.25 µg/well) were added and incubated for 90 min before the signals were measured with EnVison Xcite. In the multiplexed assay, 100 nM STAT3(136–705) and 20 nM STAT5b(136–703) were incubated with a test compound for 30 min, and 1.0 nM DIG-GpYLPQTV and 1.0 nM FITC-GpYLVLDKW were added and incubated for 90 min. Streptavidin-coated donor beads (0.50 µg/well), anti-DIG AlphaLISA (0.25 µg/well), and anti-FITC AlphaScreen acceptor beads (0.25 µg/well) were added and incubated for 90 min before the signals were measured with EnVison Xcite. AlphaLISA and AlphaScreen signals for measuring STAT3- and STAT5b-SH2 binding, respectively, can be separately measured by using a dysprosium 572 nm and a europium 615 nm narrow bandwidth filter. In inhibitory assays, these signals for the bound state and the free state were represented as 0% and 100% inhibition, respectively. The bound state was measured by incubating the labeled peptide and the protein without test compounds. The free state was measured by incubating the same mixture with an additional 10 µM non-labeled peptide contained phosphorylated tyrosine, which competitively binds to its corresponding protein. The IC50 value was calculated by Graph pad prism 4.0. The mean and the standard error (SEM) of IC50 values were determined from three independent experiments. The Z’ value was calculated using the equation Z’ = 1–(3×SD_bound +3×SD_free)/(Signal_bound – Signal_free). STAT1 and Grb2 binding assays were performed as described in previous report. In the assays for selectivity of Compound 1, 100 pM biotinylated DIG or 100 pM biotinylated FITC was incubated with 10 µM or 30 µM Compound 1 for 30 min. Streptavidin-coated donor beads (0.25 µg/well) and anti-DIG AlphaLISA acceptor beads (0.25 µg/well) or anti-FITC AlphaScreen acceptor beads (0.25 µg/well) were added and incubated for 90 min before the signals were measured with EnVison Xcite.

[2] = target: T2, STAT3(136–705) (Homo sapiens, UniProt P40763); assay: Multiplexed Alpha assay, STAT3-SH2 binding (AlphaLISA)
T2 construct: amino acids 136 to 705 of human STAT3 and 136 to 703 of human STAT5b; 6×His-tag (N); made in house; host or cells: E. coli BL-21 Star (DE3) pLysS co-transformed with pBirAcm
Method: as §1

[3] = system: STAT3 nuclear translocation in HeLa cells; assay: STAT3 nuclear translocation assay in oncostatin M-stimulated HeLa cells; assay type: cell-based
Method: The Cellomics STAT3 Activation Kit (Thermo Scientific) was used for the nuclear translocation assay. HeLa cells were incubated in a 96-well microplate for 24 h. Cells were pretreated with the test compounds for 1 hour, and 30 ng/mL (w/v) of oncostatin M was applied and the mixture was incubated for 10 min. The subsequent procedures were performed according to the manufacturer’s instructions. The cells were scanned with an ArrayScan VTI reader (Thermo Scientific), and analyzed with the Cytoplasm to Nucleus Translocation Application. The mean fluorescent values in the nuclei were calculated. The signals for vehicle treatment and no treatment (without oncostatin M) were represented as 100% and 0%, respectively, and the relative signal intensity was also calculated.

[4] = system: TYK2; set-up: method as in PMID 11934592; conditions: in vitro assay; cited from earlier work
[5] = system: JAK2; set-up: method as in PMID 11934592; conditions: in vitro assay; cited from earlier work
[6] = system: JAK3; set-up: method as in PMID 11934592; conditions: in vitro assay; cited from earlier work
[7] = multiplexed binding assay, mean and SEM, three independent experiments, read-out: IC50 STAT5b-SH2 binding (STAT5b)
[8] = multiplexed binding assay, mean and SEM, three independent experiments, read-out: IC50 STAT3-SH2 binding (STAT3)

T2 sequence (P40763 136-705): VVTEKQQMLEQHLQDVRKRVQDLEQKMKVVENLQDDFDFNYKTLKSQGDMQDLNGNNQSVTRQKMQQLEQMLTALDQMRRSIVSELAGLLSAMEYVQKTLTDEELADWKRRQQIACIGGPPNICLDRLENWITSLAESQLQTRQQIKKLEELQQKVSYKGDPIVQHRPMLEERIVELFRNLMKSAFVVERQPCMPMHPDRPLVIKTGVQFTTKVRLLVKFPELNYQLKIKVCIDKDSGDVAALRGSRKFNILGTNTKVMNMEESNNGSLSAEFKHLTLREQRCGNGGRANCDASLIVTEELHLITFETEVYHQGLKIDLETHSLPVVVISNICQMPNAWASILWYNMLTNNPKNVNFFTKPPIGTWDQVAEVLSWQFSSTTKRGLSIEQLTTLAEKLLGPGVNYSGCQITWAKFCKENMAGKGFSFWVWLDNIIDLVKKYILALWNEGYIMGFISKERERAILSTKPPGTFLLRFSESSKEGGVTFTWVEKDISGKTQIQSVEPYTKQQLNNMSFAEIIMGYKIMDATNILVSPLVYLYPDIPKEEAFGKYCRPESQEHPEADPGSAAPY

| SMILES | IC50 [1, 7] [µM] | IC50 [2, 8] [µM] | further results |
| --- | --- | --- | --- |
| CCOc1ccccc1NC1=C(Cl)C(=O)c2ccccc2C1=O [Compound 2] | 1.4 ± 0.019 | 1.5 ± 0.052 | Increase in inhibitory activity against STAT5b in comparison with Compound 1 ([1]; multiplexed assay): ~8 fold; Increase in inhibitory activity against STAT3 in comparison with Compound 1 ([2]; multiplexed assay): approximately 3 fold |
| O=C1C(Cl)=C(Cl)C(=O)c2ccccc21 [Compound 5] | 20 ± 0.33 | 12 ± 0.59 |  |
| O=C1C(Cl)=C(N2CCOCC2)C(=O)c2ccc(S(=O)(=O)N3CCOCC3)cc21 [Compound 6] | 13 ± 0.38 | 3.8 ± 0.064 |  |
| CC(C)(C)c1nc2c3cc[nH]c(=O)c3c3cc(F)ccc3c2[nH]1 [JAK inhibitor 1] |  |  | Fluorescent intensity of STAT3 in the nuclei, of the vehicle treatment ([3]; 1 µM, positive control, HeLa): 61%; IC50 [4]: […]; IC50 [5]: […]; IC50 [6]: […] |
| O=C(NN=Cc1coc2ccccc2c1=O)c1cccnc1 [STAT5 inhibitor, N′-((4-Oxo-4H-chromen-3-yl)methylene)nicotinohydrazide, reference compound] |  |  | IC50 ([1]; multiplexed assay, read-out: IC50 for STAT5b-SH2 binding): 2.8 µM; IC50 ([2]; multiplexed assay, read-out: IC50 for STAT3-SH2 binding): 161 µM |

The next lines start with results.

| IC50 [1, 7] [µM] | IC50 [2, 8] [µM] | SMILES | further results |
| --- | --- | --- | --- |
| > 30 | 23 ± 0.68 | CC(=O)NC1=C(Cl)C(=O)c2ccccc2C1=O [Compound 4] |  |
| > 30 | > 30 | CN1CCN(C2=C(Cl)C(=O)c3ccccc3C2=O)CC1 [Compound 7] | Effect on STAT3 nuclear translocation ([3]; HeLa cells, pretreatment before oncostatin M (Figure 6, Figure S9)): did not inhibit |
